Structures can show the parent of a compound that is named as a salt.
Columns and labels:
[1] = tested on: water hyacinth; assay: Experiment 5 foliar application to water hyacinths; format: in vivo, Eichhornia crassipes Solms; parameters: key to Killing index: 0 = no effect, 5 = death; conditions: for Reproduction-inhibiting effect: 3 months; for Killing index: 21 days
From the text: (§1) The detail of the assessment made in the following Experiments of the invention was as follows:
(§2) Four months after treatment, evaluation was made for inhibition of reproduction expressed in terms of symbols ranging from (-) to (+++) where (-) means no reproduction, namely complete suppression of reproduction, (±) remarkable suppression of reproduction; (+) considerable suppression of reproduction; (++) medium supprestion of reproduction; and (+++) no suppression of reproduction.
Water was placed in 20 cm.×30 cm. plastic vessels and a liquid fertilizer was added thereto. Two water hyacinths were floated in each vessel.
0.1 or 0.2% aqueous solutions of each of the compounds of the invention listed in Table 7 were sprayed by foliar application in an amount of 100 liter per 10 are. As a surfactant, 0.1% of octylphenyl polyoxyethanol was added.
The killing index (0, no effect; 5, death) after 21 days and 3 months, and the reproduction-inhibiting effect (-, no reproduction; +++, maximum reproduction) after 3 months were determined.

[2] = tested on: oak; assay: Experiment 3 foliar application to naturally growing shrubs; format: in vivo, Quercus serrata Thunb; conditions: after 3 months
From the text: as §1, §2
(§3) The compounds of the invention and other compounds listed in Table 5. were diluted to prescribed concentrations and sprayed onto naturally growing shrubs by foliar application in an amount of 150 liter per 10 are.
(§4) 0.1% of octylphenyl polyoxyethanol was added as the surfactant. The killing index (0, no effect; 5, death) after 1 month and 3 months, and the reproduction-inhibiting effect (-, no reproduction; +++, maximum reproduction) after 3 months were determined.

[3] = tested on: Japanese prickly ash; assay: as above; format: in vivo, Xanthoxylum piperitum DC.; conditions: after 3 months
From the text: as §1, §2, §3, §4

[4] = tested on: white clover; assay: Experiment 1 foliar application to naturally growing weeds; format: in vivo, Trifolium repens L.; conditions: monosodium salt; for Reproduction-inhibiting effect: 4 months; for Killing index of Upperground parts: 21 days
From the text: as §1, §2
(§5) The compounds of the invention and other compounds for comparison listed in Table 3 were diluted to prescribed concentrations and sprayed to naturally growing weeds by foliar application in an amount of 150 liter per 10 are.
(§6) 0.1% of octylphenyl polyoxyethanol was added as a surfactant.
(§7) The killing index (0, no effect, 5, death) after 21 days, and the reproduction-inhibiting effect (-, no reproduction; +++, maximum reproduction) after 2 months (manna grass and cockspar grass) and 4 months (other weeds) were determined.

[5] = tested on: kumaichigo; assay: Experiment 2 foliar application in Japanese cypress afforested land; format: in vivo, Rubus crataegifolius Bunge; conditions: 0.25%; after 30 days; monosodium salt
Procedure: as §1
The compounds of the invention and other compounds listed in Table 4. were diluted to prescribed concentrations and sprayed to shrubs by foliar application in a Japanese cypress afforested land in an amount of 150 liter per 10 are.
After 30 days and 3 months, the killing index (0, no effect; 5, death) was determined.
The heights of plants were 50-70 cm. for Japanese cypress, about 50 cm. for chestnut, 50-90 cm. for miyakozasa, about 100 cm. for eulalia and 70-100 cm. for kumaichigo, respectively.

[6] = tested on: Japanese bush cranberry; assay: Experiment 3 foliar application to naturally growing shrubs; format: in vivo, Viburnum dilatatum Thunb.; conditions: after 3 months
From the text: as §1, §2, §3, §4

[7] = tested on: manna grass; assay: Experiment 1 foliar application to naturally growing weeds; format: in vivo, Digitaria adsceudes Henr.; conditions: 2 months, monosodium salt
From the text: as §1, §2, §5, §6, §7

[8] = tested on: cockspar grass; assay: as above; format: in vivo, Echinochloa Crusgalli P. Beauv.; conditions: 2 months, monosodium salt
From the text: as §1, §2, §5, §6, §7

[9] = tested on: chigaya; assay: as above; format: in vivo, Imperata cylindrica Beauv.; conditions: 4 months
From the text: as §1, §2, §5, §6, §7

[10] = tested on: torch azalea; assay: Experiment 3 foliar application to naturally growing shrubs; format: in vivo, Rhododendoron Kaempferi Planch.; conditions: after 3 months
From the text: as §1, §2, §3, §4

[11] = tested on: purple nutsedge; assay: Experiment 1 foliar application to naturally growing weeds; format: in vivo, Cyperus rotundus L.; conditions: 4 months, monosodium salt
From the text: as §1, §2, §5, §6, §7

[12] = tested on: lace shrub; assay: Experiment 3 foliar application to naturally growing shrubs; format: in vivo, Stephanandra incisa Zabel; conditions: after 3 months
From the text: as §1, §2, §3, §4

[13] = tested on: yamazakura; assay: as above; format: in vivo, Prunus donarium Sieb. var. spontanae Makino; conditions: after 3 months
From the text: as §1, §2, §3, §4

[14] = tested on: warunasubi; assay: Experiment 1 foliar application to naturally growing weeds; format: in vivo, Solanum carolinensis L.; conditions: 4 months, monosodium salt
From the text: as §1, §2, §5, §6, §7

[15] = tested on: kiichigo; assay: Experiment 3 foliar application to naturally growing shrubs; format: in vivo, Rubus palmatsu Thunb. forma coptophyllus Makino; conditions: after 3 months
From the text: as §1, §2, §3, §4

[16] = tested on: azumanezasa; assay: Experiment 1 foliar application to naturally growing weeds; format: in vivo, Pleioblastus Chino Makino; conditions: 4 months
From the text: as §1, §2, §5, §6, §7

[17] = tested on: yabugarashi; assay: as above; format: in vivo, Cayratia japonica Houtt.; conditions: 4 months, monosodium salt
From the text: as §1, §2, §5, §6, §7

[18] = tested on: hedge bindweed; assay: as above; format: in vivo, Calystegis hederacea Wall.; conditions: 4 months, monosodium salt
From the text: as §1, §2, §5, §6, §7

C[C@H](NC(=O)[C@H](C)NC(=O)[C@@H](N)CCP(C)(=O)O)C(=O)O [SF-1293 disodium salt]
Reproduction-inhibiting effect ([1]; 0.1%): + | Reproduction-inhibiting effect ([1]; 0.2%): - | Killing index ([1]; 0.2%): 4.5

CP(=O)(O)CC[C@H](N)C(=O)O [L-AMPB monopotassium salt]
Reproduction-inhibiting effect ([1]; 0.1%): ± | Reproduction-inhibiting effect ([1]; 0.2%): -

C[C@H](NC(=O)[C@H](C)NC(=O)[C@@H](N)CCP(C)(=O)O)C(=O)O [monosodium salt]
Reproduction-inhibiting ([2]; 0.05%, monosodium salt): +++ | Reproduction-inhibiting ([2]; 0.1%, monosodium salt): ++ | Reproduction-inhibiting ([2]; 0.2%): - | Reproduction-inhibiting ([3]; 0.05%, monosodium salt): +++ | Reproduction-inhibiting ([3]; 0.1%, monosodium salt): + | Reproduction-inhibiting ([3]; 0.2%): - | Reproduction-inhibiting effect ([4]; 0.05%): +++ | Killing index of Upperground parts ([4]; 0.05%): 1.5 | Reproduction-inhibiting effect ([4]; 0.1%): +++ | Killing index of Upperground parts ([4]; 0.1%): 3.5 | Reproduction-inhibiting effect ([4]; 0.2%): + | Killing index [5]: 4.5 | Reproduction-inhibiting ([6]; 0.05%, monosodium salt): +++ | Reproduction-inhibiting ([6]; 0.1%, monosodium salt): + | Reproduction-inhibiting ([6]; 0.2%): - | Reproduction-inhibiting effect ([7]; 0.05%): +++ | Reproduction-inhibiting effect ([7]; 0.1%): ++ | Reproduction-inhibiting effect ([7]; 0.2%): ± | Reproduction-inhibiting effect ([8]; 0.05%): +++ | Reproduction-inhibiting effect ([8]; 0.1%): ++ | Reproduction-inhibiting effect ([8]; 0.2%): ± | Reproduction-inhibiting effect ([9]; 0.1%, monosodium salt): ++ | Reproduction-inhibiting effect ([9]; 0.2%): - | Reproduction-inhibiting ([10]; 0.05%, monosodium salt): +++ | Reproduction-inhibiting ([10]; 0.1%, monosodium salt): ++ | Reproduction-inhibiting ([10]; 0.2%): - | Reproduction-inhibiting effect ([11]; 0.05%): +++ | Reproduction-inhibiting effect ([11]; 0.1%): +++ | Reproduction-inhibiting effect ([11]; 0.2%): + | Reproduction-inhibiting ([12]; 0.05%, monosodium salt): +++ | Reproduction-inhibiting ([12]; 0.1%, monosodium salt): ++ | Reproduction-inhibiting ([12]; 0.2%): - | Reproduction-inhibiting ([13]; 0.05%, monosodium salt): +++ | Reproduction-inhibiting ([13]; 0.1%, monosodium salt): ++ | Reproduction-inhibiting ([13]; 0.2%): - | Reproduction-inhibiting effect ([14]; 0.05%): +++ | Reproduction-inhibiting effect ([14]; 0.1%): +++ | Reproduction-inhibiting effect ([14]; 0.2%): + | Reproduction-inhibiting ([15]; 0.05%, monosodium salt): +++ | Reproduction-inhibiting ([15]; 0.1%, monosodium salt): + | Reproduction-inhibiting ([15]; 0.2%): - | Reproduction-inhibiting effect ([16]; 0.05%, monosodium salt): +++ | Reproduction-inhibiting effect ([16]; 0.1%, monosodium salt): + | Reproduction-inhibiting effect ([16]; 0.2%): - | Reproduction-inhibiting effect ([17]; 0.05%): +++ | Reproduction-inhibiting effect ([17]; 0.1%): ++ | Reproduction-inhibiting effect ([17]; 0.2%): ± | Reproduction-inhibiting effect ([18]; 0.05%): +++ | Reproduction-inhibiting effect ([18]; 0.1%): +++ | Reproduction-inhibiting effect ([18]; 0.2%): +++ | Reproduction-inhibiting effect ([1]; 0.1%, listed as SF-1293 monosodium salt, monosodium salt): + | Reproduction-inhibiting effect ([1]; 0.2%): - | Killing index ([1]; 0.2%, listed as SF-1293 monosodium salt, monosodium salt): 4.5
